Test results published in PubChem BioAssay (NCI).
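Cells were grown in 96-well plates and exposed to each compound for 48 hours at five concentrations; endpoints were interpolated linearly between bracketing concentrations, or set to the highest concentration if not reached. TGI: total growth inhibition.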

How the values were obtained:
Test in all cases: NCI tumour cell line growth inhibition, 48 h
[1] = system: XF 498 CNS
[2] = system: OVCAR-8 ovarian
[3] = system: CCRF-CEM leukemia
[4] = system: NCI-H23 lung
[5] = system: SK-OV-3 ovarian
[6] = system: HOP-18 NSCLC
[7] = system: SNB-19 CNS
[8] = system: DMS 114 small cell lung
[9] = system: HOP-92 NSCLC
[10] = system: A498 renal
[11] = system: LXFL 529 NSCLC
[12] = system: TK-10 renal
[13] = system: NCI-H460 lung
[14] = system: SK-MEL-5 melanoma
[15] = system: M14 melanoma
[16] = system: SNB-78 CNS
[17] = system: U251 CNS
[18] = system: SN12C renal
[19] = system: MOLT-4 leukemia
[20] = system: MALME-3M melanoma
[21] = system: SNB-75 CNS
[22] = system: M19-MEL melanoma
[23] = system: SW-620 colon
[24] = system: HL-60(TB) leukemia
[25] = system: CAKI-1 renal
[26] = system: SK-MEL-28 melanoma
[27] = system: RPMI-8226 leukemia
[28] = system: UACC-62 melanoma
[29] = system: SK-MEL-2 melanoma
[30] = system: SF-268 CNS
[31] = system: SF-539 CNS
[32] = system: LOX IMVI melanoma
[33] = system: NCI-H226 lung
[34] = system: HT29 colon
[35] = system: SF-295 CNS
[36] = system: UO-31 renal
[37] = system: RXF-631 renal
[38] = system: K-562 leukemia
[39] = system: OVCAR-3 ovarian
[40] = system: NCI-H522 lung
[41] = system: HCT-15 colon
[42] = system: COLO 205 colon
[43] = system: KM20L2 colon
[44] = system: EKVX NSCLC
[45] = system: ACHN renal
[46] = system: IGROV1 ovarian
[47] = system: HCC-2998 colon
[48] = system: DMS 273 small cell lung
[49] = system: KM12 colon
[50] = system: RXF 393 renal
[51] = system: UACC-257 melanoma
[52] = system: OVCAR-5 ovarian
[53] = system: HOP-62 NSCLC
[54] = system: HCT-116 colon
[55] = system: 786-0 renal
[56] = system: A549 NSCLC
[57] = system: OVCAR-4 ovarian
[58] = system: DLD-1 colon
[59] = system: SR leukemia

Compound: COc1ccc(/C(Cl)=C(\C=O)c2ccc(OC)c(OC)c2)cc1
- TGI [1]: 56.1 µM
- TGI [2]: > 100 µM
- TGI [3]: > 100 µM
- TGI [4]: > 100 µM
- TGI [5]: > 100 µM
- TGI [6]: > 100 µM
- TGI [7]: > 100 µM
- TGI [8]: > 100 µM
- TGI [9]: 53.4 µM
- TGI [10]: 98.8 µM
- TGI [11]: > 100 µM
- TGI [12]: > 100 µM
- TGI [13]: > 100 µM
- TGI [14]: > 100 µM
- TGI [15]: > 100 µM
- TGI [16]: > 100 µM
- TGI [17]: > 100 µM
- TGI [18]: > 100 µM
- TGI [19]: > 100 µM
- TGI [20]: > 100 µM
- TGI [21]: 58.7 µM
- TGI [22]: > 100 µM
- TGI [23]: > 100 µM
- TGI [24]: > 100 µM
- TGI [25]: > 100 µM
- TGI [26]: > 100 µM
- TGI [27]: > 100 µM
- TGI [28]: > 100 µM
- TGI [29]: 76.6 µM
- TGI [30]: > 100 µM
- TGI [31]: 58.5 µM
- TGI [32]: > 100 µM
- TGI [33]: > 100 µM
- TGI [34]: > 100 µM
- TGI [35]: > 100 µM
- TGI [36]: > 100 µM
- TGI [37]: > 100 µM
- TGI [38]: > 100 µM
- TGI [39]: > 100 µM
- TGI [40]: 85.3 µM
- TGI [41]: > 100 µM
- TGI [42]: > 100 µM
- TGI [43]: > 100 µM
- TGI [44]: > 100 µM
- TGI [45]: > 100 µM
- TGI [46]: > 100 µM

Compound: COc1cc2c(OC)cc1CSCc1sc(C)c(c1Br)CSC2
- TGI [1]: > 100 µM
- TGI [47]: > 100 µM
- TGI [2]: > 100 µM
- TGI [3]: > 100 µM
- TGI [4]: > 100 µM
- TGI [5]: > 100 µM
- TGI [6]: > 100 µM
- TGI [48]: > 100 µM
- TGI [7]: > 100 µM
- TGI [8]: > 100 µM
- TGI [9]: > 100 µM
- TGI [49]: > 100 µM
- TGI [10]: > 100 µM
- TGI [11]: > 100 µM
- TGI [12]: > 100 µM
- TGI [13]: > 100 µM
- TGI [14]: > 100 µM
- TGI [15]: > 100 µM
- TGI [16]: > 100 µM
- TGI [17]: > 100 µM
- TGI [50]: > 100 µM
- TGI [18]: > 100 µM
- TGI [19]: > 100 µM
- TGI [20]: > 100 µM
- TGI [21]: > 100 µM
- TGI [22]: > 100 µM
- TGI [51]: > 100 µM
- TGI [23]: > 100 µM
- TGI [24]: > 100 µM
- TGI [52]: > 100 µM
- TGI [25]: > 100 µM
- TGI [26]: > 100 µM
- TGI [27]: > 100 µM
- TGI [28]: > 100 µM
- TGI [29]: > 100 µM
- TGI [30]: > 100 µM
- TGI [31]: > 100 µM
- TGI [32]: > 100 µM
- TGI [33]: > 100 µM
- TGI [53]: > 100 µM
- TGI [34]: > 100 µM
- TGI [35]: > 100 µM
- TGI [36]: > 100 µM
- TGI [37]: > 100 µM
- TGI [54]: > 100 µM
- TGI [38]: > 100 µM
- TGI [39]: > 100 µM
- TGI [55]: > 100 µM
- TGI [41]: > 100 µM
- TGI [42]: > 100 µM
- TGI [43]: > 100 µM
- TGI [44]: > 100 µM
- TGI [45]: > 100 µM
- TGI [56]: > 100 µM
- TGI [57]: > 100 µM
- TGI [46]: > 100 µM
- TGI [58]: > 100 µM
- TGI [59]: > 100 µM
